Reference: patent publication US10071989B2, “Substituted cinnamamide derivative, preparation method and use thereof” (TASLY PHARMACEUTICAL GROUP CO., LTD., priority 2011, dated 2018)
Entries after “also recorded” stand apart in the source; their conditions may differ. Where two headings read alike, the source gives them in different places.

Assays:
C57BL/6 mice [1] = experiment: Depression model test of anti-blepharoptosis caused by reserpine (akinesia, blepharoptosis, shell temperature); assay type: in vivo; details: for Blepharoptosis, “out-of-circle” ratio and shell temperature after reserpine (effect in words): compared with the solvent control group; for Degree of eye-closure: score 0-4 one hour after reserpine; for responders at 10 mg/kg: Mus musculus, po, 1 h, one hour after reserpine, 7.5 cm circle, 15-second observation, read-out: “out-of-circle” ratio
Experimental: 120 male C57BL/6 mice were randomly selected to observe the number of their autonomic activity. The mice was placed into the YLS-1A multi-functional mice autonomic activity recorder, and after 1 min of adaption, the activity of the mice was counted within a time period from the end of 1st min to 4th min. 96 mice with the number of autonomic activity between 70˜140 were screened out, divided randomly into 8 groups, and intragastrically administrated with the drug compounds at a dose listed in Table 3, one time daily for 7 days consecutively. The solvent control group was administrated with 2% Tween-80 aqueous solution in the same volume. Except the normal control group, 30 min after the last administration, each group was injected intraperitoneally with reserpine at a dose of 4 mg/kg. Next, akinesia, blepharoptosis and shell temperature were observed.
I Akinesia: one hour after intraperitoneal injection of reserpine, the mice were placed at the center of a circle with a diameter of 7.5 cm for a 15-second observation to calculate the “out-of-circle” ratio.
II Blepharoptosis: one hour after intraperitoneal injection of reserpine, the eye closure of mice was observed and scored by the following standard: eyelids open, 0; eyelids ¼ closed, 1; eyelids 2/4 closed, 2; eyelids ¾ closed, 3; eyelids closed completely, 4.
III Shell temperature: two hours after intraperitoneal injection of reserpine, the shell temperature of the abdomen of the mice was measured.
120 C57BL/6 mice were randomly selected to observe the number of their autonomic activity. The method was the same with that of Experiment 1. 100 mice with the number of autonomic activity between 70˜140 were screened out, divided randomly into 10 groups, and intragastrically administrated with the drug compounds at a dose listed in Table 4, one time daily for 7 days consecutively. The mice in the normal group and the solvent control group were administrated with 2% Tween-80 aqueous solution in the same volume. Except the normal control group, 30 min after the last administration, each group was injected intraperitoneally with reserpine at a dose of 4 mg/kg. Next, akinesia, blepharoptosis and shell temperature were observed. Observation method was the same with that of Experiment 1.

[2] = Chinese patent application 201010169679.9; cited from earlier work
C57BL/6 mice [3] = experiment: Number of autonomic activity of mice (YLS-1A autonomic activity recorder); assay type: in vivo; details: for Number of Autonomic activity (time): 10 mg/kg intragastric once daily, counted 30 min after administration at 6th day
Experimental: 110 mice were randomly selected to observe the number of their autonomic activity. The mice was placed into the YLS-1A multi-functional mice autonomic activity recorder, and after 1 min of adaption, the mice's activity was counted within a time period from the end of 1st min to 4th min. 96 mice with the number of autonomic activity between 70˜140 were screened out, divided randomly into 8 groups, and intragastrically administrated with the drug compounds at a dose listed in Table 1, one time daily for 7 days consecutively. The solvent control group was administrated with 2% Tween-80 aqueous solution in the same volume. All mice were placed into the autonomic activity recorder 30 min after administration at 6th day. After 1 min of adaption, the mice's activity was counted within a time period from the end of 1st min to 4th min.
(§1) 130 mice were randomly selected to observe the number of their autonomic activity. The method was the same with that of Experiment 1. 108 mice with the number of autonomic activity between 70˜140 were screened out, divided randomly into 9 groups, and intragastrically administrated with the drug compounds at a dose listed in Table 2, one time daily for 7 days consecutively. The solvent control group was administrated with 2% Tween-80 aqueous solution in the same volume. 30 min after administration at 6th day, the number of the autonomic activity of each mouse was observed. 30 min after administration at 7th day, the immobility time in tail suspension test was observed. The method was the same with that in Experiment 1.

mice = experiment: Anti-depression effect in the tested models (overall conclusion); assay type: in vivo; details: in the tested model at the tested dose
Description: Based on the aforesaid experiments, the following conclusion can be drawn: • 1.

C57BL/6 mice [4] = experiment: "Acquired despair" depression model of tail suspension test in mice; assay type: in vivo; details: 10 mg/kg intragastric for 7 days; compared with the solvent control group
Experimental: 30 min after administration at 7th day, the mice was fixed on a sustainer with a rubberized cloth at 1 cm close to the end of the tail of mice, making the mice hanged upside down. The head of the mice was about 30 cm above the table and its sight was separated from the neighboring mouse with a plate. Usually, the mice might manage to struggle in hopes of overcoming the abnormal body position. […] The accumulated immobility time within 6 min of each mouse was observed, which was regarded as “despair time”.
as §1

C57BL/6 mice [5] = experiment: Forced swimming experiment in mice; assay type: in vivo
Experimental: After 1˜2 days of adaptive feed, 80 male C57BL/6 mice, aged 6˜8 weeks and weighing 18˜22 g, were placed into the YLS-1A multi-functional mice autonomic activity recorder. After 1 min of adaption, the activity of the mice was counted within a time period from the end of 1st min to 4th min. 60 mice with the number of autonomic activity between 70˜140 were screened out, divided randomly into 6 groups, and intragastrically administrated with the drug compounds at a dose listed in Table 5, one time daily for 7 days consecutively. The solvent control group was administrated with 2% Tween-80 aqueous solution in the same volume. After the administration at 6th day, the mice were placed into a cylindrical aquarium with a water depth of 10 cm and 25° C. to force the mice to swim. After 15 min, the mice were taken out, dried and returned to the cage. 24 hours later, 30 min after the last intragastrical administration, the mice were placed into a glass bottle with a diameter of 10 cm, a height of 30 cm and a water depth of 10 cm, and the temperature of the water in the bottle was at 25° C. The mice were separated with an opaque partition, so as not to influence each other. After 2 min of adaption, an accumulated immobility time from the end of 2nd min to 6th min was recorded.

[6] = Experiment 2, 10 mg/kg intragastric 7 days, reserpine 4 mg/kg i.p., abdomen, two hours after reserpine, ±SD
[7] = Experiment 2, 10 mg/kg intragastric 7 days, reserpine 4 mg/kg i.p., ±SD
[8] = Experiment 2, 10 mg/kg intragastric 7 days, reserpine 4 mg/kg i.p.

## COc1cc(/C=C/C(=O)NCC(C)C)cc2c1OCO2 [Compound I-1, N-isobutyl-5′-methoxy-3′,4′-methylenedioxy cinnamamide]
C57BL/6 mice [1]; 10 mg/kg intragastric 7 days
  Blepharoptosis, “out-of-circle” ratio and shell temperature after reserpine (effect in words): improved significantly; also recorded: remarkably improve
C57BL/6 mice [1]; Experiment 1, 10 mg/kg intragastric 7 days, reserpine 4 mg/kg i.p., abdomen, two hours after reserpine, ±SD
  Change in the shell temperature (ΔT ° C.): 2.05 ± 0.24 °C
C57BL/6 mice [1]; Experiment 1, 10 mg/kg intragastric 7 days, reserpine 4 mg/kg i.p., ±SD
  Degree of eye-closure: 2.67 ± 0.89
C57BL/6 mice [1]; [6]
  Change in the shell temperature (T ° C.): 27.80 ± 0.61 °C
C57BL/6 mice [1]; [7]
  Degree of eye-closure: 2.91 ± 0.75
C57BL/6 mice [1]; Experiment 1, 10 mg/kg intragastric 7 days, reserpine 4 mg/kg i.p.
  responders at 10 mg/kg: 17%
C57BL/6 mice [1]; [8]
  responders at 10 mg/kg: 10%
[2]
  Anti-depressive effect in animal experiments (in words): significant anti-depressive effect
C57BL/6 mice [3]; Experiment 1, end of 1st min to 4th min
  Number of Autonomic activity (time): 113.92 ± 14.24 time

## O=C(c1cc2c(c(C(F)(F)F)c1)OCO2)N1CCCCC1 [Compound I-13, 1-(5-trifluoromethyl-3,4-methylenedioxybenzoyl)-piperidine]
C57BL/6 mice [1]; 10 mg/kg intragastric 7 days
  Blepharoptosis, “out-of-circle” ratio and shell temperature after reserpine (effect in words): remarkably improve; also recorded: antagonizing the decrease of shell temperature, akinesia and improving the degree of eye closure
C57BL/6 mice [1]; 10 mg/kg, compared with I-1, p<0.05, p<0.01
  Blepharoptosis, shell temperature and “out-of-circle” ratio compared with Compound I-1 (in words): significantly improved effect
C57BL/6 mice [1]; 10 mg/kg, compared with fluoxetine, p<0.05
  Improvement in eye closure and shell temperature compared with fluoxetine (in words): better effect to a certain degree
C57BL/6 mice [1]; 10 mg/kg, within the experiment
  Improving akinesia, blepharoptosis and shell temperature: ranking among the tested compounds (in words): better effects
C57BL/6 mice [1]; [6]
  Change in the shell temperature (T ° C.): 30.20 ± 0.95 °C
C57BL/6 mice [1]; [7]
  Degree of eye-closure: 0.90 ± 0.88
C57BL/6 mice [1]; [8]
  responders at 10 mg/kg: 70%
C57BL/6 mice [3]; 10 mg/kg intragastric, one week, compared with the solvent control group
  Effect on autonomic activity of mice (in words): had no effect
C57BL/6 mice [3]; Experiment 2
  Number of Autonomic activity (time): 87.40 ± 22.39 time
mice
  Anti-depression effect compared with the pharmacologic effect of I-1 (in words): increased to some degree
C57BL/6 mice [4]
  Effect on immobility time in tail suspension test (in words): reduce the immobility time of the mice in tail suspension test significantly; also recorded: significantly shorten the immobility time
C57BL/6 mice [5]; 10 mg/kg intragastric once daily for 7 days, 30 min after last administration, end of 2nd min to 6th min
  Immobility time in the forced swimming test in mice(s): 76.00 ± 32.32 s
C57BL/6 mice [5]; within the dosage range (5-10 mg/kg), compared with the solvent control group
  Effect on immobility time in the forced swimming test (in words): shortening the immobility time; also recorded: shorten the immobility time
